Laboratory results published in patent publication US9386769B2 (HUNAN RESEARCH INSTITUTE OF CHEMICAL INDUSTRY CO., LTD., priority 2011, dated 2016).
Where two headings read alike, the source gives them in different places.

Tests used:
Chenopodium album = test: Herbicidal activity, pre-emergence pot test, Chenopodium album; format: in vivo; settings: 150 g a.i./mu, 15 to 25 days after treatment
From the text: (§1) Bioassay method: (1) Plastic pots (about 64 cm^2) were filled with soil and placed in a stainless steel basin, seeds with the same size and plumpness of monocotyledonous weeds such as Digitaria sanguinalis, Echinochloa crus-galli, Setaria viridis and Dicotyledonous weeds such as Abutilon theophrasti or Stelleria media or Solanum nigrum, Chenopodium album, Amaranthus ascedene or Amaranthus retroflexus were sown in one-third of the pot area with the soil depth of 1 cm in two different pots separately and grown to the desired leaf stage in a greenhouse wherein water is added to the stainless steel basin until the full infiltration of soils from the bottom of pots; (2) Test compounds represented by the general formula (I) were formulated by using N,N-dimethylformamide as solvent and a small amount of Tween 80 as emulsification agent, then diluted to the required test concentrations with water, using the control group tested with corresponding solvent and water only; (3) the required test solutions were applied for pre-emergence treatment 24 hr after the weeds were sown, for postemergence treatment, monocotyledonous weeds were treated at the 1-leaf stage and dicotyledonous weeds were treated at 2 leaf stage; (4) the pre- and postemergence application rates were 150 g a.i./mu, using the control group with corresponding solvent or water respectively; (5) Treatments were kept in greenhouse for cultivation; (6) Herbicidal activities were evaluated visually 15 to 25 days after treatment, on the basis of the survey results, the weed control effect can be calculated by the following formula: efficacy (%)=(the height of the weed in the control group−the height of the weed in the test group) (the height of the weed in the control group).

Echinochloa crus-galli = test: Herbicidal activity, pre-emergence pot test, Echinochloa crus-galli; format: in vivo; settings: 150 g a.i./mu, 15 to 25 days after treatment
From the text: as §1

Abutilon = test: Herbicidal activity, pre-emergence pot test, Abutilon; format: in vivo, Abutilon theophrasti; settings: 150 g a.i./mu, 15 to 25 days after treatment
From the text: as §1

Botrytis cinerea = test: Fungicidal activity against Botrytis cinerea, mycelial growth inhibition on PDA plate; format: cell-based
Experimental: (§2) Bioassay method: Stock solution of every test compound was prepared in an appropriate solvent such as N,N-dimethylformamide (DMF), and then diluted to the required test concentrations with sterile water containing 0.1% Tween 80; Pipetted 3 mL of test solution to 27 mL of potato dextrose agar (PDA) medium at 45° C. and poured into a Petri dish to prepare a plate after shaking thoroughly; 6 mm of diameter of fungi cake from the edge of 7-day-old […] colony was inoculated on the central of the plate, wherein mycelium facing down, and cultured in the culture tank at 28° C. The diameter of fungi spread was calculated 4 days later using the control group tested with the diluent only. Test was run 4 times. Data were subjected to EXCEL statistical software analysis and the growth inhibition of the tested compound was calculated according to the corresponding control, the activity was rated on the basis of percentage of growth inhibition using the following rating system: A, inhibition (%)>90; B, 90≧inhibition (%)>70; C, 70≧inhibition (%)>50; D, inhibition (%)≦50.
Fungicidal activities against Botrytis cinerea of compounds represented by the general formula (I) were evaluated with the corresponding method in Example 18, and some of the test results are shown in Table 6 to Table 8.

Setaria viridis = test: Herbicidal activity, pre-emergence pot test, Setaria viridis; format: in vivo; settings: 150 g a.i./mu, 15 to 25 days after treatment
From the text: as §1

Digitaria sanguinalis = test: Herbicidal activity, pre-emergence pot test, Digitaria sanguinalis; format: in vivo; settings: 150 g a.i./mu, 15 to 25 days after treatment
From the text: as §1

Amaranthus spinosus = test: Herbicidal activity, pre-emergence pot test, Amaranthus spinosus; format: in vivo; settings: 150 g a.i./mu, 15 to 25 days after treatment
From the text: as §1

Tetranychus urticae = test: Acaricidal activity against Tetranychus urticae, dipping of horsebean seedlings; format: in vivo
Experimental: Bioassay method: Stock solution of every test compound was prepared in an appropriate solvent such as N,N-dimethylformamide, and a small amount of Tween 80 was added as emulsification agent, then diluted to the required test concentrations with distilled water, using the control group tested with distilled water only. 100 to 200 adults of Tetranychus urticae were transferred to well-growing horsebean seedlings and 24 hr later, horsebean seedlings with Tetranychus urticae were dipped in the test solution for 10 s, then allowed to dry with filter paper and transplanted to the beaker containing water and kept in a room for normal cultivation. Each assay contained three replications, and results were averaged. Mortality was assessed 24 hr after the treatment. The activity was rated on the basis of mortality using the following rating system: A, mortality>90; B, 90≧mortality>70; C, 70≧mortality>50; D, mortality≦50.

Sclerotinia sclerotiorum = test: Fungicidal activity against Sclerotinia sclerotiorum, mycelial growth inhibition on PDA plate; format: cell-based
Experimental: as §2

Alternaria alternata = test: Fungicidal activity against Alternaria alternata, mycelial growth inhibition on PDA plate; format: cell-based; settings: Alternaria alternata; 25 mg/L; read-out: activities against Alternaria alternata (growth inhibition rating)
Experimental: as §2
Fungicidal activities against Alternaria alternata of compounds represented by the general formula (I) were evaluated with the corresponding method in Example 18, and some of the test results are shown in Table 9 to Table 10.

Alternaria mali = test: Fungicidal activity against Alternaria mali; format: cell-based; settings: 25 mg/L
Experimental: as §2

Fusarium oxysporum = test: Fungicidal activity against Fusarium oxysporum; format: cell-based; settings: 25 mg/L
Experimental: as §2

Marssonina coronaria = test: Fungicidal activity against Marssonina coronaria; format: cell-based; settings: 25 mg/L
Experimental: as §2

Sphaceloma ampelinum = test: Fungicidal activity against Sphaceloma ampelinum; format: cell-based; settings: 25 mg/L
Experimental: as §2

Cercospora arachidicola = test: Fungicidal activity against Cercospora arachidicola; format: cell-based; settings: 25 mg/L
Experimental: as §2

Alternaria solani = test: Fungicidal activity against Alternaria solani; format: cell-based; settings: 25 mg/L
Experimental: as §2

CCN(Cc1cnc(Cl)s1)c1nc(SC)ccc1[N+](=O)[O-] [Compound 18]
herbicidal activity (efficacy), Chenopodium album (Chenopodium album): 0%
herbicidal activity (efficacy), Echinochloa crus-galli (Echinochloa crus-galli): 80%
herbicidal activity (efficacy), Abutilon (Abutilon): 0%
activities against Botrytis cinerea (growth inhibition rating) (Botrytis cinerea; 25 mg/L): B (B, 90≧inhibition (%)>70)
herbicidal activity (efficacy), Setaria viridis (Setaria viridis): 80%
herbicidal activity (efficacy), Digitaria sanguinalis (Digitaria sanguinalis): 90%
herbicidal activity (efficacy), Amaranthus spinosus (Amaranthus spinosus): 0%

CNc1ccc([N+](=O)[O-])c(N(C)Cc2cnc(Cl)s2)n1 [Compound 20]
herbicidal activity (efficacy), Chenopodium album (Chenopodium album): 90%
herbicidal activity (efficacy), Echinochloa crus-galli (Echinochloa crus-galli): 70%
herbicidal activity (efficacy), Abutilon (Abutilon): 70%
herbicidal activity (efficacy), Setaria viridis (Setaria viridis): 70%
herbicidal activity (efficacy), Digitaria sanguinalis (Digitaria sanguinalis): 70%
herbicidal activity (efficacy), Amaranthus spinosus (Amaranthus spinosus): 90%

CN(C)c1ccc([N+](=O)[O-])c(N(C)Cc2cnc(Cl)s2)n1 [Compound 23]
herbicidal activity (efficacy), Chenopodium album (Chenopodium album): 80%
herbicidal activity (efficacy), Echinochloa crus-galli (Echinochloa crus-galli): 0%
herbicidal activity (efficacy), Abutilon (Abutilon): 70%
activities against Botrytis cinerea (growth inhibition rating) (Botrytis cinerea; 25 mg/L): B (B, 90≧inhibition (%)>70)
herbicidal activity (efficacy), Setaria viridis (Setaria viridis): 0%
herbicidal activity (efficacy), Digitaria sanguinalis (Digitaria sanguinalis): 0%
herbicidal activity (efficacy), Amaranthus spinosus (Amaranthus spinosus): 80%

C#CCOc1ccc([N+](=O)[O-])c(N(CC)Cc2cnc(Cl)s2)n1 [Compound 25, 6-propargyloxy-N-((2-chlorothiazole-5-yl)methyl)-N-ethyl-3-nitropyridine-2-amine]
inhibition at 1.25 µg/mL (Botrytis cinerea; Botrytis cinerea, 1.25 mg/L, Table 7, read-out: activities against Botrytis cinerea (growth inhibition)): 85%
inhibition at 2.5 µg/mL (Botrytis cinerea; Botrytis cinerea, 2.5 mg/L, Table 7, read-out: activities against Botrytis cinerea (growth inhibition)): 90%
inhibition at 5 µg/mL (Botrytis cinerea; Botrytis cinerea, 5 mg/L, Table 7, read-out: activities against Botrytis cinerea (growth inhibition)): 93%
inhibition at 10 µg/mL (Botrytis cinerea; Botrytis cinerea, 10 mg/L, Table 7, read-out: activities against Botrytis cinerea (growth inhibition)): 97%
inhibition at 25 µg/mL (Botrytis cinerea; Botrytis cinerea, 25 mg/L, read-out: activities against Botrytis cinerea (growth inhibition rating)): > 90%
mortality at 500 µg/mL (Tetranychus urticae; Tetranychus urticae, 24 h, read-out: activities against Tetranychus urticae (mortality rating)): 50 to 70%
inhibition at 1.25 µg/mL (Sclerotinia sclerotiorum; Sclerotinia sclerotiorum, 1.25 mg/L, Table 4, read-out: activities against Sclerotinia sclerotiorum (growth inhibition)): 78%
inhibition at 2.5 µg/mL (Sclerotinia sclerotiorum; Sclerotinia sclerotiorum, 2.5 mg/L, Table 4, read-out: activities against Sclerotinia sclerotiorum (growth inhibition)): 84%
inhibition at 5 µg/mL (Sclerotinia sclerotiorum; Sclerotinia sclerotiorum, 5 mg/L, Table 4, read-out: activities against Sclerotinia sclerotiorum (growth inhibition)): 90%
inhibition at 10 µg/mL (Sclerotinia sclerotiorum; Sclerotinia sclerotiorum, 10 mg/L, Table 4, read-out: activities against Sclerotinia sclerotiorum (growth inhibition)): 96%
inhibition at 25 µg/mL (Sclerotinia sclerotiorum; Sclerotinia sclerotiorum, 25 mg/L, read-out: activities against Sclerotinia sclerotiorum (growth inhibition rating)): > 90%
inhibition at 25 µg/mL (Alternaria alternata): 70 to 90%

C=CCOc1ccc([N+](=O)[O-])c(N(CC)Cc2cnc(Cl)s2)n1 [Compound 29, 6-allyloxy-N-((2-chlorothiazole-5-yl)methyl)-N-ethyl-nitropyridine-2-amine]
activities against Botrytis cinerea (growth inhibition) (Botrytis cinerea; 1.25 mg/L, Table 7): 62%
activities against Botrytis cinerea (growth inhibition) (Botrytis cinerea; 2.5 mg/L, Table 7): 67%
activities against Botrytis cinerea (growth inhibition) (Botrytis cinerea; 5 mg/L, Table 7): 73%
activities against Botrytis cinerea (growth inhibition) (Botrytis cinerea; 10 mg/L, Table 7): 80%
activities against Botrytis cinerea (growth inhibition rating) (Botrytis cinerea; 25 mg/L): A (A, inhibition (%)>90)
activities against Tetranychus urticae (mortality rating) (Tetranychus urticae; 500 mg/L, mortality 24 hr after the treatment): C (C, 70≧mortality>50)
activities against Sclerotinia sclerotiorum (growth inhibition) (Sclerotinia sclerotiorum; 1.25 mg/L, Table 4): 63%
activities against Sclerotinia sclerotiorum (growth inhibition) (Sclerotinia sclerotiorum; 2.5 mg/L, Table 4): 72%
activities against Sclerotinia sclerotiorum (growth inhibition) (Sclerotinia sclerotiorum; 5 mg/L, Table 4): 79%
activities against Sclerotinia sclerotiorum (growth inhibition) (Sclerotinia sclerotiorum; 10 mg/L, Table 4): 83%
activities against Sclerotinia sclerotiorum (growth inhibition rating) (Sclerotinia sclerotiorum; 25 mg/L): A (A, inhibition (%)>90)

CC12CC1(C)C(=O)N(c1cc(Cl)cc(Cl)c1)C2=O (stereo not shown) [Procymidone, reference compound]
activity against Alternaria mali (Alternaria mali): 82%
activity against Fusarium oxysporum (Fusarium oxysporum): 38%
inhibition at 0.1562 µg/mL (Botrytis cinerea; Botrytis cinerea, 0.1562 mg/L, Table 8, read-out: activities against Botrytis cinerea (growth inhibition)): 46%
inhibition at 0.3125 µg/mL (Botrytis cinerea; Botrytis cinerea, 0.3125 mg/L, Table 8, read-out: activities against Botrytis cinerea (growth inhibition)): 67%
inhibition at 0.625 µg/mL (Botrytis cinerea; Botrytis cinerea, 0.625 mg/L, Table 8, read-out: activities against Botrytis cinerea (growth inhibition)): 75%
inhibition at 1.255 µg/mL (Botrytis cinerea; Botrytis cinerea, 1.255 mg/L, Table 8, read-out: activities against Botrytis cinerea (growth inhibition)): 83%
inhibition at 2.5 µg/mL (Botrytis cinerea; Botrytis cinerea, 2.5 mg/L, Table 8, read-out: activities against Botrytis cinerea (growth inhibition)): 93%
inhibition at 5 µg/mL (Botrytis cinerea; Botrytis cinerea, 5 mg/L, Table 8, read-out: activities against Botrytis cinerea (growth inhibition)): 100%
activity against Marssonina coronaria (Marssonina coronaria): 75%
activity against Sphaceloma ampelinum (Sphaceloma ampelinum): 96%
activity against Cercospora arachidicola (Cercospora arachidicola): 85%
inhibition at 0.1562 µg/mL (Sclerotinia sclerotiorum; Sclerotinia sclerotiorum, 0.1562 mg/L, Table 5, read-out: activities against Sclerotinia sclerotiorum (growth inhibition)): 34%
inhibition at 0.3125 µg/mL (Sclerotinia sclerotiorum; Sclerotinia sclerotiorum, 0.3125 mg/L, Table 5, read-out: activities against Sclerotinia sclerotiorum (growth inhibition)): 63%
inhibition at 0.625 µg/mL (Sclerotinia sclerotiorum; Sclerotinia sclerotiorum, 0.625 mg/L, Table 5, read-out: activities against Sclerotinia sclerotiorum (growth inhibition)): 66%
inhibition at 1.255 µg/mL (Sclerotinia sclerotiorum; Sclerotinia sclerotiorum, 1.255 mg/L, Table 5, read-out: activities against Sclerotinia sclerotiorum (growth inhibition)): 76%
inhibition at 2.5 µg/mL (Sclerotinia sclerotiorum; Sclerotinia sclerotiorum, 2.5 mg/L, Table 5, read-out: activities against Sclerotinia sclerotiorum (growth inhibition)): 79%
inhibition at 5 µg/mL (Sclerotinia sclerotiorum; Sclerotinia sclerotiorum, 5 mg/L, Table 5, read-out: activities against Sclerotinia sclerotiorum (growth inhibition)): 93%
activity against Alternaria solani (Alternaria solani): 94%
